Entries after “also recorded” stand apart in the source; their conditions may differ.

This is an account of results in patent US5880146A, “Inhibition of IL-12-induced IFN-γ synthesis by specific bis-phenol compounds as a method of immune modulation” (Fuji ImmunoPharmaceuticals Corporation, priority 1995, dated 1999).

In series [1] the test system is IL-12 induction of IFN-γ in PHA-activated human PBMC. Description: Screening assay for compounds which inhibit IL-12 induction of IFN-γ (ELISA). Format: cell-based. The following applies: 5 μg/ml, IL-2 25 U/ml + IL-12 0.5 ng/ml, 48 hr, single test, read-out: % INH of IFNγ. The method, then: Human peripheral blood monocytes (PBMC) were obtained from commercial sources as a leukophoresis from a healthy volunteer and were purified by centrifugation on a Ficoll-Hypaque (Pharmacia) gradient (1700 rpm for 20 min). The "buffy" coat containing the PBMC was diluted with serum-free culture medium (SF-RPMI) to a volume of 50 ml and collected by centrifugation at 1500 rpm for 5 min. Cells were resuspended in cell culture medium containing 10% fetal bovine serum (RPMI-10) and phytohemaglutinin (PHA - 10 μg/ml) at a density of 5×10^6 cells/ml and were cultured for 3 days at 37° C. in a humidified CO2 incubator. The PHA-activated cells were collected by centrifugation, washed three times with an equal volume of SF-RPMI and resuspended in fresh RPMI-10 (1×10^6 cells /ml). Aliquots (100 μl) were dispensed into the wells of multiple 96-well plates to give a final cell number of 10^5 per well. Test compounds, dissolved in dimethyl sulfoxide (DMSO) at 1 mg/ml, were first diluted in culture medium to an intermediate concentration of 20 μg/ml and then were added (50 μwell) to a specific well of the plate for each compound. Stimulation medium (50 μl/well) containing 10% serum, IL-2 and IL-12 was added to final concentrations of 25 U/ml and 0.5 ng/ml, respectively. Control wells receive no IL-2 or IL-12 (negative control) or received both interleukins but no test compound (positive control). The plates were incubated for 48 hr at 37° C. in a CO2 incubator at which time aliquots (20 μl) were removed for analysis of IFN-γ concentration by ELISA. A quantitative ELISA was developed by coating 96-well plates with an mouse monoclonal antibody against human IFN-γ, 1 μg/ml in phosphate buffered saline (PBS) (Pestka Biological Laboratories), overnight at 4° C. Unbound antibody was washed off by washing three times with PBS. Non-specific antibody binding was blocked with a solution of 1% bovine serum albumin (BSA) and 1% goat serum in PBS (150 μl/well) which was incubated for 2 hr at 37° C. After washing the blocked plates four times with PBS, test samples and dilutions of the IFN-γ standard are added in a final volume of 100 μl/well. Following an overnight incubation at 4° C., the plates are washed four times with PBS, and a polyclonal rabbit antiserum against human IFN-γ (1/10000 dilution--Petska Biological Laboratories) is added. After an additional incubation for 1 hr at 37° C. and four washes with PBS, a polyclonal donkey anti-rabbit detecting antibody, conjugated to horseradish peroxidase (1/700 dilution--Petska Biological Laboratories) is added for 1 hr at 37° C. The plates are then washed four times with PBS and 100 μl of K-blue substrate E(ILISA Technologies, Neogen Corp.) is added until the color in the wells containing the standard curve is sufficiently developed, at which time 100 μl of "Red-stop" solution (ELISA Technologies) is added. The absorbance of the solution within each well of the plate is then read at 650 nm using an ELISA plate reader (Dynatech MR7000). The amount of IFN-γ is calculated by comparing the optical density of the test sample with a standard curve derived from the dilutions of the control IFN-y. The amount of IFN-γ that is induced in the presence of both IL-2 and IL-12 generally ranges from 1200-2000 pg/ml while the amount produced in the absence of IL-12 is generally less than 50 pg/ml. Experimental data are shown in Table 2 which discloses a) the percent inhibition of IFNγ production, relative to a […], when the cells have been treated with a bis-compound at a final concentration of 5 μg/ml of the listed bis-compound (%INH or IFNγ) and b) the percent of cells which are viable after the treatment with 5 μg/ml of the various bis-compounds, determined by adding MTS to the media (% Viability). MTS is a chemical chromophore that is metabolized in the mitochondria of viable cells to produce a color which increases in intensity in proportion to the numbers of viable cells. […]
In general terms: An ELISA detects its analyte on a solid surface through an enzyme-linked reagent.

The nature of series [2]: Cell viability (MTS) after treatment with bis-compound. It is filed as cell-based. The following applies: human, pha-activated pbmc, 5 μg/ml. The protocol:
Human peripheral blood monocytes (PBMC) were obtained from commercial sources as a leukophoresis from a healthy volunteer and were purified by centrifugation on a Ficoll-Hypaque (Pharmacia) gradient (1700 rpm for 20 min). The "buffy" coat containing the PBMC was diluted with serum-free culture medium (SF-RPMI) to a volume of 50 ml and collected by centrifugation at 1500 rpm for 5 min. Cells were resuspended in cell culture medium containing 10% fetal bovine serum (RPMI-10) and phytohemaglutinin (PHA - 10 μg/ml) at a density of 5×10^6 cells/ml and were cultured for 3 days at 37° C. in a humidified CO2 incubator. The PHA-activated cells were collected by centrifugation, washed three times with an equal volume of SF-RPMI and resuspended in fresh RPMI-10 (1×10^6 cells /ml). Aliquots (100 μl) were dispensed into the wells of multiple 96-well plates to give a final cell number of 10^5 per well. Test compounds, dissolved in dimethyl sulfoxide (DMSO) at 1 mg/ml, were first diluted in culture medium to an intermediate concentration of 20 μg/ml and then were added (50 μwell) to a specific well of the plate for each compound. Stimulation medium (50 μl/well) containing 10% serum, IL-2 and IL-12 was added to final concentrations of 25 U/ml and 0.5 ng/ml, respectively. Control wells receive no IL-2 or IL-12 (negative control) or received both interleukins but no test compound (positive control). The plates were incubated for 48 hr at 37° C. in a CO2 incubator at which time aliquots (20 μl) were removed for analysis of IFN-γ concentration by ELISA. A quantitative ELISA was developed by coating 96-well plates with an mouse monoclonal antibody against human IFN-γ, 1 μg/ml in phosphate buffered saline (PBS) (Pestka Biological Laboratories), overnight at 4° C. Unbound antibody was washed off by washing three times with PBS. Non-specific antibody binding was blocked with a solution of 1% bovine serum albumin (BSA) and 1% goat serum in PBS (150 μl/well) which was incubated for 2 hr at 37° C. After washing the blocked plates four times with PBS, test samples and dilutions of the IFN-γ standard are added in a final volume of 100 μl/well. Following an overnight incubation at 4° C., the plates are washed four times with PBS, and a polyclonal rabbit antiserum against human IFN-γ (1/10000 dilution--Petska Biological Laboratories) is added. After an additional incubation for 1 hr at 37° C. and four washes with PBS, a polyclonal donkey anti-rabbit detecting antibody, conjugated to horseradish peroxidase (1/700 dilution--Petska Biological Laboratories) is added for 1 hr at 37° C. The plates are then washed four times with PBS and 100 μl of K-blue substrate E(ILISA Technologies, Neogen Corp.) is added until the color in the wells containing the standard curve is sufficiently developed, at which time 100 μl of "Red-stop" solution (ELISA Technologies) is added. The absorbance of the solution within each well of the plate is then read at 650 nm using an ELISA plate reader (Dynatech MR7000). The amount of IFN-γ is calculated by comparing the optical density of the test sample with a standard curve derived from the dilutions of the control IFN-y. […] MTS is a chemical chromophore that is metabolized in the mitochondria of viable cells to produce a color which increases in intensity in proportion to the numbers of viable cells. The absorbance of the cell culture can be compared to control cultures in order to determine the percent viability.

The nature of series [3]: Toxicity of bis-compounds after single systemic dose. Format: in vivo. Conditions: mouse, in vivo, 16% cremaphor, single dose.
The subject of series [4] is mice. The series is described as above. It is filed as in vivo. Conditions: 16% cremaphor.
Setting [5] is: iv, 20% DMSO, conc. sol. 10 mg/ml.
Where [6] appears, read: 100 mg/kg IV, 20% DMSO, 10 mg/ml.
Setting [7] is: 150 mg/kg IV, 20% DMSO, 10 mg/ml.
Setting [8] is: 80 mg/kg IV, 20% DMSO, 10 mg/ml.
The mark [9] stands for this setting: 100 mg/kg IV, 20% EGME, 10 mg/ml.
Where [10] appears, read: 150 mg/kg IV, 20% EGME, 10 mg/ml.

Take `Cc1cc(C)c(O)c(C(CCCCCCC(C)C)c2cc(C)cc(C)c2O)c1` [Compound 8302]: in series [1], the inhibition at 5 µg/mL came out at 95%. In addition, the viability in series [2] worked out at 100%. In addition, the 50% lethal dose (LD50) in series [3] (setting [5]) is greater than 150 mg/kg; in series [3] (iv, 20% DMSO, conc. sol. 15 mg/ml) it was 200 mg/kg. In addition, the “Results (Dead/Alive)” value in series [4] (setting [6]) is recorded as “Alive”; in series [4] (setting [7]) it was “Alive”; in series [4] (200 mg/kg IV, 20% DMSO, 15 mg/ml), “Alive 1; also recorded: Dead 1”.
Turning to `Cc1cc(C)c(O)c(Cc2cc(C)cc(C)c2O)c1` [Compound 51850], the inhibition at 5 µg/mL in series [1] was determined as 77%. The viability in series [2] came out at 97%. Further, in series [3] (setting [5]), the 50% lethal dose (LD50) is greater than 150 mg/kg. The “Results (Dead/Alive)” value in series [4] (setting [6]) and in series [4] (setting [7]) was “Alive” each time.
Turning to `CCCCC(C)(c1cc(C)c(O)c(C)c1)c1cc(C)c(O)c(C)c1` [Compound 52782], the inhibition at 5 µg/mL in series [1] amounted to 102%. Besides, the viability in series [2] was 116%. Moreover, the LD50 in series [3] (IV, 20% DMSO, conc. sol. 10 mg/ml) is less than 80 mg/kg. For the same compound, the “Results (Dead/Alive)” value in series [4] (setting [8]) is given as “Dead”.
As to `CCC(C)(c1ccc(O)c(C)c1)c1ccc(O)c(C)c1` [Compound 54003], the inhibition at 5 µg/mL in series [1] amounted to 101%. For the same compound, the viability in series [2] was determined as 85%. In addition, the LD50 in series [3] (setting [5]) lay in the range of 100 to 150 mg/kg. The “Results (Dead/Alive)” value was “Alive” in series [4] (setting [6]) and “Dead” in series [4] (setting [7]).
For the compound `CCCCCCC(c1cc(C)cc(C)c1O)c1cc(C)cc(C)c1O` [Compound 54015], the inhibition at 5 µg/mL in series [1] was found to be 96%. Further, the viability in series [2] was determined as 34%. The compound also showed a median lethal dose (LD50) in series [3] (setting [5]) greater than 80 mg/kg. Moreover, the “Results (Dead/Alive)” value in series [4] (setting [8]) is on record as “Alive”.
Consider `Cc1cc(C(CCc2ccccc2)c2cc(C)cc(C(C)(C)C)c2O)c(O)c(C(C)(C)C)c1` [Compound 54016], for which the inhibition at 5 µg/mL in series [1] was 26%. Moreover, the viability in series [2] is 98%. Moreover, in series [3] (setting [5]), the LD50 is greater than 150 mg/kg. Besides, the “Results (Dead/Alive)” value in series [4] (setting [6]) and in series [4] (setting [7]) was “Alive” in each case.
Turning to `CCCCCC(c1cc(C)cc(C(C)(C)C)c1O)c1cc(C)cc(C(C)(C)C)c1O` [Compound 54018], the inhibition at 5 µg/mL in series [1] was determined as 55%. In series [2], the viability stood at 92%. For the same compound, the LD50 in series [3] (IV, 20% EGME, conc. sol. 10 mg/ml) was less than 100 mg/kg. The “Results (Dead/Alive)” value in series [4] (setting [9]) and in series [4] (setting [10]) was “Dead” throughout.
`CCCCCC(c1cc(C)cc(C)c1O)c1cc(C)cc(C)c1O` [Compound 54019]: in series [1], the inhibition at 5 µg/mL came to 77%. Also, in series [2], the viability is 101%. In series [3] (setting [5]), this compound displayed an LD50 of 100 to 150 mg/kg. Moreover, the entries for the “Results (Dead/Alive)” value in series [4] (setting [6]) and in series [4] (setting [7]) were “Alive” and “Dead”, respectively.
For `CCCCC(c1cc(C)cc(C(C)(C)C)c1O)c1cc(C)cc(C(C)(C)C)c1O` [Compound 54020], the inhibition at 5 µg/mL in series [1] was 69%. The viability in series [2] amounted to 95%. Besides, the LD50 in series [3] (iv, 20% EGME, conc. sol. 10 mg/ml) lay within 100 to 150 mg/kg. The results for the “Results (Dead/Alive)” value in series [4] (setting [9]) and in series [4] (setting [10]) were “Alive” and “Dead”, respectively.
With `CCCC(c1cc(C)c(O)c(C)c1)c1cc(C)c(O)c(C)c1` [Compound 54044], in series [1], the inhibition at 5 µg/mL is 98%. Also, the viability in series [2] came to 92%. In addition, the 50% lethal dose (LD50) in series [3] (setting [5]) was greater than 150 mg/kg. Moreover, the “Results (Dead/Alive)” value in series [4] (setting [6]) and in series [4] (setting [7]) was “Alive” in each case.
Take `CCCC(C)(c1cc(C)c(O)c(C)c1)c1cc(C)c(O)c(C)c1` [Compound 54064]: in series [1], the inhibition at 5 µg/mL is 79%. For the same compound, the viability in series [2] was 112%. In series [3] (setting [5]), this compound returned a median lethal dose (LD50) of 100 to 150 mg/kg. The “Results (Dead/Alive)” value in series [4] (setting [6]) was “Alive”; in series [4] (setting [7]) it was “Dead”.

For orientation: viability means a read-out of living cells in per cent, often relative to untreated cells. By LD50 is commonly meant the dose expected to kill half of the subjects tested. Read a high LD50 as a less toxic substance.
